Measurements reported in patent US9580416B2, “Inhibitors of Bruton's tyrosine kinase” (PHARMACYCLICS LLC, priority 2014, dated 2017).

Legend:
Assay type in all cases: biochemical
[1] = target: Btk (Homo sapiens, UniProt Q06187); test: Btk kinase activity, TR-FRET assay; conditions: read-out: Btk (IC50)
Procedure, shortened: (§1)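 Enzyme (Btk 0.5 nM; Lck 6 nM) reacted 1 h with inhibitor, ATP at Km and biotin-peptide substrate in pH 7.4 buffer, 10% DMSO. Phosphopeptide detected by Eu-p-Tyr100 antibody plus streptavidin-APC (665/615 nm). IC50 calculated from fitted Ki(app) via ATP/Km correction plus half total enzyme.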

[2] = target: Lck (Homo sapiens, UniProt P06239); test: Lck kinase activity, TR-FRET assay; conditions: read-out: LCK (IC50)
Procedure, shortened: as §1

[3] = target: EGFR (Homo sapiens, UniProt P00533); test: Inhibition of a panel of kinases, in vitro HotSpot kinase assay: EGFR
Procedure: (§2) The degree of inhibition of a panel of kinases is determined using the in vitro HotSpot kinase assay (purified enzymes, ^33P-ATP, an appropriate substrate and 1 uM ATP).

[4] = target: T1, JAK3 (Homo sapiens, UniProt P52333); test: Inhibition of a panel of kinases, in vitro HotSpot kinase assay: JAK3
T1 sequence (P52333 1-1124): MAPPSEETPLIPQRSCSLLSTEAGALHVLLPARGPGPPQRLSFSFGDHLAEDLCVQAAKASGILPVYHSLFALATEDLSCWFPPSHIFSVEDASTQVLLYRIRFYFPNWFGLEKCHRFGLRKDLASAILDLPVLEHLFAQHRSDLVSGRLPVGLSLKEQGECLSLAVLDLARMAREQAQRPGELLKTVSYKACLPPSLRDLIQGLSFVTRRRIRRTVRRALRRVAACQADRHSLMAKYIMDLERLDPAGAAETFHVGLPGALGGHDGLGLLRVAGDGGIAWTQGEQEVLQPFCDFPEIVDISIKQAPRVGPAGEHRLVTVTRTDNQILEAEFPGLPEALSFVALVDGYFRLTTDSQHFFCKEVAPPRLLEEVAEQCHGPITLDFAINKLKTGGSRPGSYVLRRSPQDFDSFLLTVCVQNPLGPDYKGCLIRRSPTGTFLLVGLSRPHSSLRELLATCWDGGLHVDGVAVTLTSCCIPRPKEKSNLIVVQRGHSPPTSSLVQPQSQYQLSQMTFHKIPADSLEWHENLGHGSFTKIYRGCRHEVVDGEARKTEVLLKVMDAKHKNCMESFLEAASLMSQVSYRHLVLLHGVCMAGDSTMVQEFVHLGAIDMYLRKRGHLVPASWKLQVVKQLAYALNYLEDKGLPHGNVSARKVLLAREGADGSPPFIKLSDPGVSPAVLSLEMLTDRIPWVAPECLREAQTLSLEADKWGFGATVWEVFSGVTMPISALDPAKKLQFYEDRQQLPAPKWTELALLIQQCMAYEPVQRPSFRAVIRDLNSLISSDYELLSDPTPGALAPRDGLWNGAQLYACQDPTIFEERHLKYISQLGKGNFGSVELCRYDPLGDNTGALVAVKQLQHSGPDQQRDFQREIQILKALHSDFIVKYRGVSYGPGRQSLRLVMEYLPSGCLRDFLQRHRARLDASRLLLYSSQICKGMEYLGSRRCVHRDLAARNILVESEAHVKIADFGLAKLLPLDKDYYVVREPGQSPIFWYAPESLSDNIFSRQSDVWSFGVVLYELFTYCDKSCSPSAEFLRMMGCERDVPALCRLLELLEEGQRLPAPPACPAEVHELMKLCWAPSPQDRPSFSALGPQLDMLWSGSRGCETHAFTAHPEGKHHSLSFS
Procedure: as §2

Sequence of Btk (Q06187 whole entry): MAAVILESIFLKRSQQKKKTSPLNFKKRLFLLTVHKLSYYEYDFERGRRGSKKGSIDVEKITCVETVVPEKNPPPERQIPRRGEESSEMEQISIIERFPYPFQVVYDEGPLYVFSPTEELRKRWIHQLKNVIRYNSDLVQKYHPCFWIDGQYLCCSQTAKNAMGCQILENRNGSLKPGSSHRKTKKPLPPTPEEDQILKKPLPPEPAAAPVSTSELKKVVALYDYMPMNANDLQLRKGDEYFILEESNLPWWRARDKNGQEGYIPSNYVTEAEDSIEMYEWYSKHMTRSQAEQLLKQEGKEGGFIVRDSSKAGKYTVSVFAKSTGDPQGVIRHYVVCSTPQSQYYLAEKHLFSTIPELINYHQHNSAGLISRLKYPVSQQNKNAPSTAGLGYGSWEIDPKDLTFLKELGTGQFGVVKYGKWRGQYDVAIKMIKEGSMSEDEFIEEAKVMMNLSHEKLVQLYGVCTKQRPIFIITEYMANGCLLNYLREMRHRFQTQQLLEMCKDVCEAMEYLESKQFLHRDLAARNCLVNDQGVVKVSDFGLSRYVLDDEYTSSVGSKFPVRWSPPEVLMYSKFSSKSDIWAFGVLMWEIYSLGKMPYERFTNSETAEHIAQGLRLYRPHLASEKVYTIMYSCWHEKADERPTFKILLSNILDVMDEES
Sequence of Lck (P06239 whole entry, species assumed): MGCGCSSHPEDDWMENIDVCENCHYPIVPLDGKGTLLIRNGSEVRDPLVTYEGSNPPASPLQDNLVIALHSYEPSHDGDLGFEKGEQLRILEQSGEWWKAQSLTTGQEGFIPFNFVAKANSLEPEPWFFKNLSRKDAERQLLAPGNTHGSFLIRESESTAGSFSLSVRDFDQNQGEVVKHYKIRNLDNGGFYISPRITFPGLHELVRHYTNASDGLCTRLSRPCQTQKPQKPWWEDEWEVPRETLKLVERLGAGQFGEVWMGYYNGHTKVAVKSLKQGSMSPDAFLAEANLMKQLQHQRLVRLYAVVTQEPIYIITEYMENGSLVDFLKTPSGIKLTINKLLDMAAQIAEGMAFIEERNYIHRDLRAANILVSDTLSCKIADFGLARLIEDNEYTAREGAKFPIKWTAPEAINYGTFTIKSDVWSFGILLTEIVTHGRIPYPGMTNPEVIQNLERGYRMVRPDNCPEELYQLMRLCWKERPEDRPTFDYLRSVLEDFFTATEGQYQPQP
Sequence of EGFR (P00533 25-1210): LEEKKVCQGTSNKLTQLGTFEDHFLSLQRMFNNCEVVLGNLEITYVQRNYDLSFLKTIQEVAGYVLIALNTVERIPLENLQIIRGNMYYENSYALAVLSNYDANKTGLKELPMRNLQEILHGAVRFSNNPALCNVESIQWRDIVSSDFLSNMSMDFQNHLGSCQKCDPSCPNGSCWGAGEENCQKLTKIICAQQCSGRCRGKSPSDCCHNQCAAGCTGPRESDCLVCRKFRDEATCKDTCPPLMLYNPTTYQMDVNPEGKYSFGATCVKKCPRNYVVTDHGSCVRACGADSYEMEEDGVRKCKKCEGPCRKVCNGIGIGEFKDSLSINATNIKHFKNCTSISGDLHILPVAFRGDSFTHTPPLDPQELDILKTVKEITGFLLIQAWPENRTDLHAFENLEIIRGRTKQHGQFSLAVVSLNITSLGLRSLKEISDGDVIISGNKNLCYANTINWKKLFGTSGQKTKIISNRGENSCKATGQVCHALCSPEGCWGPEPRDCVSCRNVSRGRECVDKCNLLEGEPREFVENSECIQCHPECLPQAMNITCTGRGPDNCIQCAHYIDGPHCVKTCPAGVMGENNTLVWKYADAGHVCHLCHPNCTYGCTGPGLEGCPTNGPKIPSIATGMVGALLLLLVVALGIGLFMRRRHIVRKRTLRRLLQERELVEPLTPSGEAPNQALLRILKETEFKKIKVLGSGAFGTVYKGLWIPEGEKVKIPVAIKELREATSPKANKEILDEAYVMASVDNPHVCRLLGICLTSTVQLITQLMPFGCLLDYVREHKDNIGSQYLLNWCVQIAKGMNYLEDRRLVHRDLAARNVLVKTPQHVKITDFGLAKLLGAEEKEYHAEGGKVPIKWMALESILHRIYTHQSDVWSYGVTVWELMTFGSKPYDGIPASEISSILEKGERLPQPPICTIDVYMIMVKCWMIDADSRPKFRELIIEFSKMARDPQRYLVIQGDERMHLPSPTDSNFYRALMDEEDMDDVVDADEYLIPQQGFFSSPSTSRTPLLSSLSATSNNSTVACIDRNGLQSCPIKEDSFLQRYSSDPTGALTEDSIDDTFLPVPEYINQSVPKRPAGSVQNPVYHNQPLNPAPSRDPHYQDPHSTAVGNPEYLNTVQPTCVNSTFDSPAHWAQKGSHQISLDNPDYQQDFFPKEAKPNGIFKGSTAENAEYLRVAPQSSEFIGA

SMILES	IC50 [1] [nM]	IC50 [2] [nM]	IC50 [3] [µM]	IC50 [4] [µM]
CC(=O)N1CC[C@H](Nc2n[nH]c3nccc(Oc4cccc(C(=O)Nc5ccc(C(C)C)c(C)c5)c4)c23)C1 [compound 124, 3-[(3-{[(3S)-1-acetylpyrrolidin-3-yl]amino}-1H-pyrazolo[3,4-b]pyridin-4-yl)oxy]-N-[3-methyl-4-(propan-2-yl)phenyl]benzamide]	100 to 1000	< 100	1 to 10	1 to 10
Cc1cccc(NC(=O)c2ccc(Oc3ccnc4[nH]nc(N[C@@H]5CCCN(C(=O)C6(C)CCOCC6)C5)c34)cc2)n1 [compound 114, 4-[(3-{[(3R)-1-(4-methyloxane-4-carbonyl)piperidin-3-yl]amino}-1H-pyrazolo[3,4-b]pyridin-4-yl)oxy]-N-(6-methylpyridin-2-yl)benzamide]	100 to 1000	1000 to 10000	> 10	> 10
CC#CC(=O)N1CCC[C@@H](Nc2n[nH]c3nccc(Oc4ccc(C(=O)Nc5cc(C)n(C)n5)cc4)c23)C1 [compound 185]	100 to 1000	> 10000	> 10	> 10
CCC(=O)N1CCC[C@@H](Nc2n[nH]c3nccc(Oc4ccc(-c5nc6ccccc6[nH]5)cc4)c23)C1 [compound 231, 1-[(3R)-3-({4-[4-(1H-1,3-benzodiazol-2-yl)phenoxy]-1H-pyrazolo[3,4-b]pyridin-3-yl}amino)piperidin-1-yl]propan-1-one]	> 10000	> 10000	> 10	> 10
CCOP(=O)(CCCC(=O)N1CCC[C@@H](Nc2n[nH]c3nccc(Oc4ccc(C(=O)Nc5cc(C)ccn5)cc4)c23)C1)OCC [compound 271, (R)-diethyl 4-(3-(4-(4-(4-methylpyridin-2-ylcarbamoyl)phenoxy)-1H-pyrazolo[3,4-b]pyridin-3-ylamino)piperidin-1-yl)-4-oxobutylphosphonate]	< 100	100 to 1000	> 10	> 10
COCCNc1n[nH]c2nccc(Oc3ccc(C(=O)Nc4cc(C(F)(F)F)ccn4)cc3)c12 [compound 236, 4-({3-[(2-methoxyethyl)amino]-1H-pyrazolo[3,4-b]pyridin-4-yl}oxy)-N-[4-(trifluoromethyl)pyridin-2-yl]benzamide]	100 to 1000	–	1 to 10	> 10
Cc1ccc(C(=O)N2CCC[C@@H](Nc3n[nH]c4nccc(Oc5ccc(C(=O)Nc6cc(C)ccn6)cc5)c34)C2)cc1 [compound 245, (R)-4-(3-(1-(4-methylbenzoyl)piperidin-3-ylamino)-1H-pyrazolo[3,4-b]pyridin-4-yloxy)-N-(4-methylpyridin-2-yl)benzamide]	< 100	1000 to 10000	–	> 10
C=CC(=O)N1CCC[C@@H](Nc2n[nH]c3nccc(Nc4cccc(C(=O)Nc5ccc(C(C)C)c(C)c5)c4)c23)C1 [compound 129, N-[3-methyl-4-(propan-2-yl)phenyl]-3-[(3-{[(3R)-1-(prop-2-enoyl)piperidin-3-yl]amino}-1H-pyrazolo[3,4-b]pyridin-4-yl)amino]benzamide]	< 100	1000 to 10000	–	< 0.1
Cc1ccnc(NC(=O)c2ccc(Oc3ccnc4[nH]nc(N[C@@H]5CCCN(C(=O)c6nccs6)C5)c34)cc2)c1 [compound 241, (R)—N-(4-methylpyridin-2-yl)-4-(3-(1-(thiazole-2-carbonyl)piperidin-3-ylamino)-1H-pyrazolo[3,4-b]pyridin-4-yloxy)benzamide]	< 100	100 to 1000	–	> 10
Cc1ccnc(NC(=O)c2ccc(Oc3ccnc4[nH]nc(N[C@@H]5CCCN(C(=O)c6ccccc6F)C5)c34)cc2)c1 [compound 248, (R)-4-(3-(1-(2-fluorobenzoyl)piperidin-3-ylamino)-1H-pyrazolo[3,4-b]pyridin-4-yloxy)-N-(4-methylpyridin-2-yl)benzamide]	< 100	1000 to 10000	–	> 10
Cc1ccnc(NC(=O)c2ccc(Oc3ccnc4[nH]nc(N[C@@H]5CCCN(C(=O)c6ncco6)C5)c34)cc2)c1 [compound 240, (R)—N-(4-methylpyridin-2-yl)-4-(3-(1-(oxazole-2-carbonyl)piperidin-3-ylamino)-1H-pyrazolo[3,4-b]pyridin-4-yloxy)benzamide]	< 100	100 to 1000	–	> 10

Results, then the compound that gave them:

IC50 [1] [nM]	IC50 [2] [nM]	IC50 [3] [µM]	IC50 [4] [µM]	SMILES
< 100	> 10000	> 10	> 10	CN(C)C(=O)N1CCC[C@@H](Nc2n[nH]c3nccc(Oc4ccc(C(=O)Nc5ccccn5)cc4)c23)C1 [compound 233, (3R)-N,N-dimethyl-3-[(4-{4-[(pyridin-2-yl)carbamoyl]phenoxy}-1H-pyrazolo[3,4-b]pyridin-3-yl)amino]piperidine-1-carboxamide]
< 100	100 to 1000	1 to 10	> 10	Cc1ccnc(NC(=O)c2ccc(Oc3ccnc4[nH]nc(N[C@@H]5CCCN(C(=O)N(C)C)C5)c34)cc2)c1 [compound 106, (3R)-N,N-dimethyl-3-[(4-{4-[(4-methylpyridin-2-yl)carbamoyl]phenoxy}-1H-pyrazolo[3,4-b]pyridin-3-yl)amino]piperidine-1-carboxamide]
< 100	100 to 1000	1 to 10	> 10	Cc1ccnc(NC(=O)c2ccc(Oc3ccnc4[nH]nc(N[C@@H]5CCCN(C(=O)[C@@H]6CCCO6)C5)c34)cc2)c1 (single isomer, unassigned) [compound 94]
< 100	100 to 1000	1 to 10	1 to 10	CC#CC(=O)N1CCC[C@@H](Nc2n[nH]c3nccc(Oc4ccc(C(=O)Nc5ncc(CC)s5)cc4)c23)C1 [compound 177]
< 100	100 to 1000	> 10	> 10	CC#CC(=O)N1CCC[C@@H](Nc2n[nH]c3nccc(Oc4ccc(C(=O)Nc5nc(C)c(C)s5)cc4)c23)C1 [compound 175]
< 100	> 10000	1 to 10	0.1 to 1	C=CC(=O)N1CCC[C@@H](Nc2n[nH]c3nccc(Oc4ccc(C(=O)Nc5cc(C)on5)cc4)c23)C1 [compound 178]
< 100	1000 to 10000	1 to 10	1 to 10	Cc1cnc(NC(=O)c2ccc(Oc3ccnc4[nH]nc(N[C@@H]5CCCN(C(=O)/C=C/CN(C)C6CC6)C5)c34)cc2)s1 [compound 142]
< 100	–	1 to 10	> 10	CCNC(=O)N1CCC[C@@H](Nc2n[nH]c3nccc(Oc4ccc(Oc5ccccc5)cc4C)c23)C1 [compound 235, (3R)-N-ethyl-3-{[4-(2-methyl-4-phenoxyphenoxy)-1H-pyrazolo[3,4-b]pyridin-3-yl]amino}piperidine-1-carboxamide]
< 100	1000 to 10000	–	> 10	Cc1ccnc(NC(=O)c2ccc(Oc3ccnc4[nH]nc(N[C@@H]5CCCN(C(=O)c6ccc(F)cc6)C5)c34)cc2)c1 [compound 243, (R)-4-(3-(1-(4-fluorobenzoyl)piperidin-3-ylamino)-1H-pyrazolo[3,4-b]pyridin-4-yloxy)-N-(4-methylpyridin-2-yl)benzamide]
< 100	100 to 1000	–	> 10	Cc1ccnc(NC(=O)c2ccc(Oc3ccnc4[nH]nc(N[C@@H]5CCCN(C(=O)c6ncc[nH]6)C5)c34)cc2)c1 [compound 242, (R)-4-(3-(1-(1H-imidazole-2-carbonyl)piperidin-3-ylamino)-1H-pyrazolo[3,4-b]pyridin-4-yloxy)-N-(4-methylpyridin-2-yl)benzamide]
< 100	1000 to 10000	–	> 10	Cc1ccnc(NC(=O)c2ccc(Oc3ccnc4[nH]nc(N[C@@H]5CCCN(C(=O)c6ccc(Cl)cc6)C5)c34)cc2)c1 [compound 244, (R)-4-(3-(1-(4-chlorobenzoyl)piperidin-3-ylamino)-1H-pyrazolo[3,4-b]pyridin-4-yloxy)-N-(4-methylpyridin-2-yl)benzamide]
